# Test results as given in ChEMBL document CHEMBL3399970, “Synthesis of novel pleuromutilin derivatives. Part 1: preliminary studies of antituberculosis activity” (2015).
# System: Mycobacterium tuberculosis
# Assay: Antimycobacterial activity against Mycobacterium tuberculosis H37Rv assessed as inhibition at 20 uM
# Type: functional
row,Compound,inhibition at 20 µM
1,C=C[C@]1(C)C[C@@H](OC(=O)CN(CC)Cc2ccccc2)[C@]2(C)[C@H](C)CC[C@]3(CCC(=O)[C@H]32)[C@@H](C)[C@@H]1O,100%
2,C=C[C@]1(C)C[C@@H](OC(=O)CN(CC)Cc2cccc(Cl)c2)[C@]2(C)[C@H](C)CC[C@]3(CCC(=O)[C@H]32)[C@@H](C)[C@@H]1O,99%
3,C=C[C@]1(C)C[C@@H](OC(=O)CN(CC)Cc2cccc(C)c2)[C@]2(C)[C@H](C)CC[C@]3(CCC(=O)[C@H]32)[C@@H](C)[C@@H]1O,16%
4,C=C[C@]1(C)C[C@@H](OC(=O)CN(CC)Cc2ccc(N(CC)CC)cc2)[C@]2(C)[C@H](C)CC[C@]3(CCC(=O)[C@H]32)[C@@H](C)[C@@H]1O,99%
5,C=C[C@]1(C)C[C@@H](OC(=O)CN(CC)Cc2ccc(Oc3ccccc3)cc2)[C@]2(C)[C@H](C)CC[C@]3(CCC(=O)[C@H]32)[C@@H](C)[C@@H]1O,100%
6,C=C[C@]1(C)C[C@@H](OC(=O)CN(Cc2ccccc2)Cc2ccc(Oc3ccccc3)cc2)[C@]2(C)[C@H](C)CC[C@]3(CCC(=O)[C@H]32)[C@@H](C)[C@@H]1O,101%
7,C=C[C@]1(C)C[C@@H](OC(=O)CN(Cc2ccc(Oc3ccccc3)cc2)C2CCCCC2)[C@]2(C)[C@H](C)CC[C@]3(CCC(=O)[C@H]32)[C@@H](C)[C@@H]1O,88%
8,C=C[C@]1(C)C[C@@H](OC(=O)CN(N2CCCCC2)S(=O)(=O)c2ccc(N)cc2)[C@]2(C)[C@H](C)CC[C@]3(CCC(=O)[C@H]32)[C@@H](C)[C@@H]1O,60%

# System: Mycobacterium tuberculosis
# Assay: Antimycobacterial activity against Mycobacterium tuberculosis H37Rv assessed as complete inhibition of proliferation
# Type: functional
row,Compound,MIC
1,C=C[C@]1(C)C[C@@H](OC(=O)CN(CC)Cc2ccc(N(CC)CC)cc2)[C@]2(C)[C@H](C)CC[C@]3(CCC(=O)[C@H]32)[C@@H](C)[C@@H]1O,7.2 µM
